Data reported in US9376470B2, “Polypeptide having angiogenesis-inducing activity and antibacterial activity, and use thereof for medical purposes” (FunPep Inc., priority 2008, dated 2016).
Peptide text beside a SMILES is read from it.

Columns and labels:
[1] = system: human vascular endothelial cells and fibroblast cells (co-culture); experiment: Lumen formation with angiogenesis kit KZ-1000 (section 7); type: cell-based; conditions: for ability to form lumina: 0.5, 2.5 and 10 μg/mL; for The Area of Lumina (relative value, negative control as 100) / The Length of Lumina (relative value, negative control as 100): day 11
Description: Using an angiogenesis kit available from KURABO […] LTD. (Product No.: KZ-1000), lumen formation by the polypeptides was evaluated. Vascular endothelial growth factor A (VEGF-A) as a positive control, and polypeptide-free, unstimulated group as a negative control, were used.
Using a special medium for angiogenesis which was attached to the kit, each polypeptide was prepared such that the concentration thereof was respectively 0.5, 2.5 and 10 μg/mL. To a 24-well plate in which cells were plated (the cells were those obtained by co-culturing human vascular endothelial cells and fibroblast cells at an optimum concentration) which was attached to the kit, the special medium for angiogenesis containing each polypeptide was added, and the cells were cultured at 37° C. under 5% CO2. The medium was replaced with a medium containing the same additive on day 4, day 7 and day 9 of culture. On day 11 from the beginning of the culture, staining was performed using a kit for staining lumina (for CD31 antibody staining) according to the following procedure.
The media were removed, and washing was performed with Dulbecco's phosphate buffered saline (PBS(−)). Thereafter, ice-cooled 70% ethanol was added to the plate, and the cells were fixed. Each well was washed with a blocking solution (Dulbecco's phosphate buffered saline (PBS(−)) containing 1% BSA). To each well, 0.5 mL of the primary antibody for CD31 staining (mouse anti-human CD31 antibody) 4000-fold diluted with the blocking solution was added, and then the plate was incubated for 60 minutes at 37° C. After the completion of the incubation, each well was washed totally 3 times with 1 mL of the blocking solution. Then, 0.5 mL of the secondary antibody solution (goat anti-mouse IgG/alkaline phosphatase conjugate) 500-fold diluted with the blocking solution was added to each well. The plate was incubated for 60 minutes at 37° C., and thereafter each well was washed 3 times with 1 mL of distilled water. During that period, 2 tablets of BCIP/NBT were dissolved into distilled water, and the obtained solution was filtered through a filter having a pore size of […] to prepare a substrate solution. To each well, 0.5 mL of the prepared BCIP/NBT substrate solution was added, and the plate was incubated at 37° C. until the lumina turned to deep purple (typically for 5-10 minutes). After the completion of the incubation, each well was washed 3 times with 1 mL of distilled water. After washing, the washing solution was removed by aspiration, and the plate was left to stand and dry naturally. After drying, photographs of each well were taken under a microscope.
Each of the obtained images was quantified using an angiogenesis quantification software. The area and length of formed lumina observed in each visual field were measured on the basis of the scale of an angiogenesis quantification software available from KURABO […] LTD. (angiogenesis quantification software Ver 1.0), and evaluated on the basis of the ratio of the area or length of polypeptide-containing groups relative to the area or length of the negative control group.

[2] = system: Crl:CD (SD) rats, cut wound; experiment: Effect to heal cut wounds, rat cut-wound model; type: in vivo; conditions: for wound closing tension: 10, 100 and 1000 μg/mL, 50 μL dropwise once a day, measured on day 6; for scars of cut wounds / cicatrization by visual observation, compared with the bFGF formulation: rat cut-wound model, data not shown
Description: Next, using rat cut-wound model, the effect of the five polypeptides SR-1 to 5 to heal cut wounds in vivo was evaluated. As described in Tetsuaki Yamaura et al. (Oyo Yakuri (Pharmacometrics) 22, 565-579 (1981)), the rat cut-wound model was produced and the wound closing tension was measured. That is, a cut wound of 30 to 36 mm was made on the back of Crl:CD (SD) rats (male, 7-week old, obtained from Charles River Laboratories Japan, Inc.) using a safety razor, and sutured at 3 points equally spaced. The day when this surgical treatment was applied was regarded as […] (day 0). […] Additions of 50 μL physiological saline were regarded as negative controls (Saline). […] The sutures were removed day 3, and the wound closing tension was measured on day 6.

[3] = system: Crl:CD (SD) rats; experiment: Ability to form granulation tissue in paper disc model; type: in vivo, rat; conditions: 10 μg/disc (250 μg/mL×40 μl/disc), subcutaneous paper disc, eight days later
Source text: Then, the ability to form granulation tissue of five polypeptides SR-1 to 5 in vivo was studied. […] The prepared paper discs were embedded subcutaneously into the back of Crl:CD (SD) rats (male, 9-week old, obtained from Charles River Laboratories Japan, Inc.). Eight days later, the paper discs were taken out, and the granulation tissues around the paper discs were collected to determine their wet weight.

[4] = type: in vitro ADME; conditions: human serum, 37° C.
Description: Then, the stability of five polypeptides SR-1 to 5 in serum was evaluated.
In human serum (purchased from KAC Co., Ltd.), or in rat serum obtained by collecting blood from a rat, then leaving the collected blood to stand at room temperature followed by centrifugation, each of the peptides was dissolved so as to attain a final concentration of 500 μg/mL, and the obtained solutions were left to stand at 37° C. After leaving to stand for 10 min or 30 min or 60 min, these solutions were subjected to HPLC chromatogram analysis to detect peaks of the decomposition products, and calculate the ratio of the concentration of the peptides which remained in the solutions relative to the starting concentration. In addition, the half-lives of the peptides in serum were also calculated.
HPLC chromatogram analysis conditions are as follows.

Row | Compound | ability to form lumina [1] | The Area of Lumina (relative value, negative control as 100) ([1]; polypeptide 0.5 μg/mL) | The Length of Lumina (relative value, negative control as 100) ([1]; polypeptide 0.5 μg/mL) | The Area of Lumina (relative value, negative control as 100) ([1]; polypeptide 10 μg/mL) | The Length of Lumina (relative value, negative control as 100) ([1]; polypeptide 10 μg/mL) | wound closing tension [2] | scars of cut wounds / cicatrization by visual observation, compared with the bFGF formulation [2] | granulation tissue weight [3] | half-life [4] [min]
1 | CC[C@H](C)[C@H](NC(=O)[C@H](CC(C)C)NC(=O)[C@H](CCCCN)NC(=O)[C@H](CC(C)C)NC(=O)[C@@H](N)CCSC)C(=O)N[C@@H](Cc1ccccc1)C(=O)N[C@@H](CC(C)C)C(=O)N[C@@H](Cc1c[nH]cn1)C(=O)N[C@@H](CCCNC(=N)N)C(=O)N[C@@H](CC(C)C)C(=O)N[C@@H](CCCCN)C(=O)N[C@@H](CCCNC(=N)N)C(=O)N[C@@H](CCSC)C(=O)N[C@@H](CCCNC(=N)N)C(=O)N[C@@H](CCCCN)C(=O)N[C@@H](CCCNC(=N)N)C(=O)N[C@@H](CC(C)C)C(=O)N[C@@H](CCCCN)C(=O)N[C@@H](CCCNC(=N)N)C(=O)N[C@@H](CCCCN)C(=O)O [SR-1] (H-MLKLIFLHRLKRMRKRLKRK-OH; N-terminus assumed) | high ability to form lumina | 94.6 | 97.4 | 156.6 | 149.5 | effect of increasing the wound closing tension | cicatrization was hardly observed | largest increase in the granulation tissue weight | 4
2 | CSCC[C@H](NC(=O)[C@H](CCCNC(=N)N)NC(=O)[C@@H](N)CCCCN)C(=O)N[C@@H](CCCNC(=N)N)C(=O)N[C@@H](CCCCN)C(=O)N[C@@H](CCCNC(=N)N)C(=O)N[C@@H](CC(C)C)C(=O)N[C@@H](CCCCN)C(=O)N[C@@H](CCCNC(=N)N)C(=O)N[C@@H](CCCCN)C(=O)N[C@@H](CC(C)C)C(=O)N[C@@H](CCCNC(=N)N)C(=O)N[C@@H](CC(C)C)C(=O)N[C@@H](Cc1c[nH]c2ccccc12)C(=O)N[C@@H](Cc1c[nH]cn1)C(=O)N[C@@H](CCCNC(=N)N)C(=O)N[C@@H](CCCCN)C(=O)N[C@@H](CCCNC(=N)N)C(=O)N[C@@H](Cc1ccc(O)cc1)C(=O)N[C@@H](CCCCN)C(=O)O [SR-5] (H-KRMRKRLKRKLRLWHRKRYK-OH; N-terminus assumed) |  | 103.4 | 106.2 | 107.7 | 106.8 | effect of increasing the wound closing tension |  |  | 21
3 | CSCC[C@H](NC(=O)[C@H](CCCNC(=N)N)NC(=O)[C@H](CCCCN)NC(=O)[C@H](CC(C)C)NC(=O)[C@H](CCCNC(=N)N)NC(=O)[C@H](Cc1c[nH]cn1)NC(=O)[C@H](CC(C)C)NC(=O)[C@H](Cc1ccccc1)NC(=O)[C@H](CCCNC(=N)N)NC(=O)[C@H](CC(C)C)NC(=O)[C@@H](N)CCC(=O)O)C(=O)N[C@@H](CCCNC(=N)N)C(=O)N[C@@H](CCCCN)C(=O)N[C@@H](CCCNC(=N)N)C(=O)N[C@@H](CC(C)C)C(=O)N[C@@H](CCCCN)C(=O)N[C@@H](CCCNC(=N)N)C(=O)N[C@@H](CCCCN)C(=O)N[C@@H](CC(C)C)C(=O)N[C@@H](CCCNC(=N)N)C(N)=O [SR-3] (H-ELRFLHRLKRMRKRLKRKLR-NH2; N-terminus assumed) | high ability to form lumina | 100.8 | 101.9 | 118.0 | 122.6 | effect of increasing the wound closing tension | cicatrization was hardly observed | largest increase in the granulation tissue weight | 15
4 | CC[C@H](C)[C@H](NC(=O)[C@H](CC(C)C)NC(=O)[C@@H](N)CCCCN)C(=O)N[C@@H](Cc1ccccc1)C(=O)N[C@@H](CC(C)C)C(=O)N[C@@H](Cc1c[nH]cn1)C(=O)N[C@@H](CCCNC(=N)N)C(=O)N[C@@H](CC(C)C)C(=O)N[C@@H](CCCCN)C(=O)N[C@@H](CCCNC(=N)N)C(=O)N[C@@H](CCSC)C(=O)N[C@@H](CCCNC(=N)N)C(=O)N[C@@H](CCCCN)C(=O)N[C@@H](CCCNC(=N)N)C(=O)N[C@@H](CC(C)C)C(=O)N[C@@H](CCCCN)C(=O)N[C@@H](CCCNC(=N)N)C(=O)N[C@@H](CCCCN)C(=O)N[C@@H](CC(C)C)C(=O)N[C@@H](CCCNC(=N)N)C(N)=O [SR-4] (H-KLIFLHRLKRMRKRLKRKLR-NH2; N-terminus assumed) |  | 90.5 | 97.0 | 96.2 | 96.4 | effect of increasing the wound closing tension | cicatrization was hardly observed |  | 16
5 | CC(C)C[C@H](NC(=O)[C@H](CCCCN)NC(=O)[C@H](CCCNC(=N)N)NC(=O)[C@H](CCCCN)NC(=O)[C@H](CC(C)C)NC(=O)[C@H](CCCNC(=N)N)NC(=O)[C@H](CCCCN)NC(=O)[C@H](CCCNC(=N)N)NC(=O)[C@H](CC(C)C)NC(=O)[C@H](CCCNC(=N)N)NC(=O)[C@H](CCCNC(=N)N)NC(=O)[C@H](CCCCN)NC(=O)[C@H](CC(C)C)NC(=O)[C@H](CCCNC(=N)N)NC(=O)[C@H](Cc1c[nH]cn1)NC(=O)[C@H](CC(C)C)NC(=O)[C@H](Cc1ccccc1)NC(=O)[C@H](CCCNC(=N)N)NC(=O)[C@H](CC(C)C)NC(=O)[C@@H](N)CCC(=O)O)C(=O)N[C@@H](CCCNC(=N)N)C(N)=O [SR-2] (H-ELRFLHRLKRRLRKRLKRKLR-NH2; N-terminus assumed) | high ability to form lumina | 110.7 | 108.9 | 138.0 | 129.9 |  | cicatrization was hardly observed |  | 12
